Source: patent publication US11312769B2, “Anti-TMEFF1 antibodies and antibody drug conjugates” (Bluefin BioMedicine, Inc., priority 2017, dated 2022)

Assays:
H526 cells = experiment: Growth inhibition and isobologram/combination index, H526; format: cell-based, human; conditions: for IC50: H526, 5 days, alone; for effect of combination with 30C10-PBD: H526 cells
Description: (§1) Two SCLC cell lines H526 and H1048, which expresses ˜2,500 copies of TMEFF1 on the cell surface per cell, were seeded onto 96 well plates at 2,000 cells/well on the day of treatment. To distinguish synergy from additivity of the combination of 30C10-PBD with niraparib (selleckchem, Cat # S2741), etoposide (Cell Signaling Technology, Cat #2200S) or cisplatin (Sigma, Cat # P4394), for each combination, a specific isobologram was constructed and the combination-index was calculated as described by Chou, TC and Talalay P (Quanttative analysis of dose-effect relationships: the combined effects of multiple drugs or enzyme inhibitors, Adv Enzyme Regul, 1984). IC50 value was defined as the drug concentration reducing by 50% the growth of treated cells compared with control. IC50 values of each drug was determined by plating H526 or H1048 cells and adding 30C10-PBD, niraparib, etoposide or cisplatin at 10-fold dilutions spanning their probable range of activity. Concentrations ranging from 0.0001-1 ug/ml were used for 30C10-PBD, from 0.01 to 100 uM for Niraparib, from 0.001-10 uM for etoposide and from 0.01-100 uM for cisplatin. Cell viability was measured 5 days later by CellTiter Glo® Luminescent Cell viability Assay™ (Promega, Madison, Wis.) according to manufacturer's instructions. Each IC50 was graphically derived from the growth curve graphed by Prism™ showing percent survival vs log drug concentrations.
(§2) Combination-index (CI) was defined as follows: CI=[C]A50/IC50A+[C]B50/IC50B, where [C]A50 and [C]B50 are the concentrations in combination inducing the IC50 effect. A CI of less than, equal to, or more than 1 indicates, respectively, synergy, additivity, or antagonism.
(§3) The 50% growth-inhibitory activity of the drug combinations was measured after 5 days of treatment. The line of additivity for the isobologram was constructed by interpolating the two points corresponding to the IC50 of the two drugs alone. Graphically, synergy, additivity, and antagonism are indicated by a point plotted below, on, or above the line of additivity, respectively.

H1048 cells = experiment: Growth inhibition and isobologram/combination index, H1048; format: cell-based, human; conditions: for IC50: H1048, 5 days, alone; for effect of combination with 30C10-PBD: H1048 cells
Description: as §1, §2, §3

[1] = H526, combination with 30C10-PBD 0.3 ng/ml
[2] = H526, combination with 30C10-PBD 0.6 ng/ml
[3] = H1048, combination with 30C10-PBD 0.1 ng/ml
[4] = H1048, combination with 30C10-PBD 0.3 ng/ml

| Compound | IC50 (H526 cells) | CI (H526 cells; [1]) | effect (H526 cells; [1]) | CI (H526 cells; [2]) | effect (H526 cells; [2]) | effect of combination with 30C10-PBD (H526 cells) | IC50 (H1048 cells) | CI (H1048 cells; [3]) | effect (H1048 cells; [3]) | CI (H1048 cells; [4]) | effect (H1048 cells; [4]) | effect of combination with 30C10-PBD (H1048 cells) | effect (H1048 cells; H1048, combination with 30C10-PBD 0.1 ng/ml, listed as etoposide) | effect (H1048 cells; H1048, combination with 30C10-PBD 0.3 ng/ml, listed as etoposide) | IC50 (H526 cells; Homo sapiens, NCI-H526, 120 h) | IC50 (H1048 cells; Homo sapiens, NCI-H1048, 120 h) |
| --- | --- | --- | --- | --- | --- | --- | --- | --- | --- | --- | --- | --- | --- | --- | --- | --- |
| N.N.[Cl][Pt][Cl] [Cisplatin, cisplatin] | 240 nM | 0.865 | synergy (A CI of less than, equal to, or more than 1 indicates, respectively, synergy, additivity, or antagonism) | 0.703 | synergy (A CI of less than, equal to, or more than 1 indicates, respectively, synergy, additivity, or antagonism) | synergistic effects | 620 nM | 0.985 | additive | 1.008 | additive | additive effects | – | – | – | – |
| COc1cc([C@@H]2c3cc4c(cc3[C@@H](O[C@@H]3O[C@@H]5CO[C@@H](C)O[C@H]5[C@H](O)[C@H]3O)[C@H]3COC(=O)[C@H]23)OCO4)cc(OC)c1O [Etoposide, etoposide] | 330 nM | 0.847 | synergy (A CI of less than, equal to, or more than 1 indicates, respectively, synergy, additivity, or antagonism) | 0.801 | synergy (A CI of less than, equal to, or more than 1 indicates, respectively, synergy, additivity, or antagonism) | synergistic effect | 160 nM | 0.932 | synergy (A CI of less than, equal to, or more than 1 indicates, respectively, synergy, additivity, or antagonism) | 0.998 | additive | – | synergistic effect | additive effect | – | – |
| NC(=O)c1cccc2cn(-c3ccc([C@@H]4CCCNC4)cc3)nc12 [Niraparib, niraparib] | – | 0.762 | synergy (A CI of less than, equal to, or more than 1 indicates, respectively, synergy, additivity, or antagonism) | 0.619 | synergy (A CI of less than, equal to, or more than 1 indicates, respectively, synergy, additivity, or antagonism) | Synergistic effect | – | 0.949 | synergy (A CI of less than, equal to, or more than 1 indicates, respectively, synergy, additivity, or antagonism) | 0.888 | synergy (A CI of less than, equal to, or more than 1 indicates, respectively, synergy, additivity, or antagonism) | Synergistic effect | – | – | 3240 nM | 1070 nM |
